The source made the active and inactive calls. The rule behind the calls is not given here.

For data set [1], the target named is T1, von Hippel-Lindau disease tumor suppressor/Histone-lysine N-methyltransferase, H3 lysine-79 specific (Homo sapiens, UniProt Q8TEK3+P40337). Nature of the data set: PROTAC activity at VHL/DOT1L in mixed-lineage leukemia rearranged (MLL-r) human MV4-11 cells assessed as induction of DOTIL degradation by measuring fold change in DOT1L protein level at 3 uM incubated for 48 hrs by western blot analysis relative to control. The data set is classed as cell-based.
Target sequence in this assay (P40337 whole entry, looked up): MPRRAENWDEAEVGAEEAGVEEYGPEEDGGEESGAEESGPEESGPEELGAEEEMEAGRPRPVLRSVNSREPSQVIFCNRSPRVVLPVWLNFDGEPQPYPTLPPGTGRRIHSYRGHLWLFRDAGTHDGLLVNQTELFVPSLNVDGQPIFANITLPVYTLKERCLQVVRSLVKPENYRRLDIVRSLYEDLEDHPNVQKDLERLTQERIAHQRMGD
Target sequence in this assay (Q8TEK3 whole entry, looked up): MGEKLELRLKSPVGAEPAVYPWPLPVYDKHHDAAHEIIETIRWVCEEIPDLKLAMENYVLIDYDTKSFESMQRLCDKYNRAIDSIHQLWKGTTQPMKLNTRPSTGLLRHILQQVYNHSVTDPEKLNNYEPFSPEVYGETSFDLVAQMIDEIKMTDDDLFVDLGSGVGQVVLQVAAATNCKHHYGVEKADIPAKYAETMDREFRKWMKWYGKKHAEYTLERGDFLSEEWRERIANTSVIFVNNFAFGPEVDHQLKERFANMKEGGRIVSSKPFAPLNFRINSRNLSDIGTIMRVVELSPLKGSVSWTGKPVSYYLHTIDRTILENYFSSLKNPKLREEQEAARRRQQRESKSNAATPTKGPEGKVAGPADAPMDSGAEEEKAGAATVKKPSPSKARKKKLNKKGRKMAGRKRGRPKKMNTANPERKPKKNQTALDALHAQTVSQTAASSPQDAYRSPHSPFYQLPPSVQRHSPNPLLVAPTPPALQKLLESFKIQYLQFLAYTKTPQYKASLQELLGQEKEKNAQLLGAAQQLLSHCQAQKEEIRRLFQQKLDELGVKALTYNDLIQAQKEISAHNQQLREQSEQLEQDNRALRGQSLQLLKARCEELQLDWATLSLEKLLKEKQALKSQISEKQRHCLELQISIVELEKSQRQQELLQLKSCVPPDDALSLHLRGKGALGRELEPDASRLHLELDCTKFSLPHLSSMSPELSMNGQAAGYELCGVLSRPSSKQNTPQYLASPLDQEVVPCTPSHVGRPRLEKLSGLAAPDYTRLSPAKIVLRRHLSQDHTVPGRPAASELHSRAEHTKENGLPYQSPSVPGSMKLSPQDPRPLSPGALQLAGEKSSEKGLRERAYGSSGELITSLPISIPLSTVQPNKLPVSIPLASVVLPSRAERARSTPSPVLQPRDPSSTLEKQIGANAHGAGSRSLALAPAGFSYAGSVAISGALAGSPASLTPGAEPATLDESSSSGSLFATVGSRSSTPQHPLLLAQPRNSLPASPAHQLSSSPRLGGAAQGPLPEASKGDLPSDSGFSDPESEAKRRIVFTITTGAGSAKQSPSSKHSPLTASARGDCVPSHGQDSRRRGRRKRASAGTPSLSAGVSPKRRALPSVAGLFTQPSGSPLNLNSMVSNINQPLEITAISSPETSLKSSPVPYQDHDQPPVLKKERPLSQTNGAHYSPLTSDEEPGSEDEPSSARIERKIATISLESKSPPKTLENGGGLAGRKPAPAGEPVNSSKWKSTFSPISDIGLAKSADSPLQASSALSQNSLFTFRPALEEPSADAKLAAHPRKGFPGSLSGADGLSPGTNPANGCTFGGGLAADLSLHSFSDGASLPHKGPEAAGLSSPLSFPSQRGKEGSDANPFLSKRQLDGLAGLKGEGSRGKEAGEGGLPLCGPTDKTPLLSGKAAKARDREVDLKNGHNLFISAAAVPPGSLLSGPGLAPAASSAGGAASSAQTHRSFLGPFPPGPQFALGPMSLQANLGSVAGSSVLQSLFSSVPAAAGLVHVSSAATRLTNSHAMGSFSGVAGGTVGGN

For data set [2], the system named is MCF-10A. Nature of the data set: Cytotoxicity against human MCF-10A cells assessed as inhibition of cell growth incubated for 7 days by CCK-8 assay. The data set is classed as toxicity, cell-based. The settings on record: 168 h, time 7 day.
For data set [3], the target named is T1, von Hippel-Lindau disease tumor suppressor/Histone-lysine N-methyltransferase, H3 lysine-79 specific. Nature of the data set: PROTAC activity at VHL/DOT1L in mixed-lineage leukemia rearranged (MLL-r) human THP-1 cells assessed as induction of DOTIL degradation by measuring fold change in H3K79Me2 level at 3 uM incubated for 24 hrs by western blot analysis relative to control. The data set is classed as cell-based.
Target sequence in this assay (P40337 whole entry, looked up): as the sequence (P40337 whole entry, looked up) above
Target sequence in this assay (Q8TEK3 whole entry, looked up): as the sequence (Q8TEK3 whole entry, looked up) above

For data set [4] the target is unchanged. As to the kind of experiment: PROTAC activity at VHL/DOT1L in mixed-lineage leukemia rearranged (MLL-r) human THP-1 cells assessed as induction of DOT1L degradation at 3 uM co-incubated with VHL ligand for 24 hrs by western blot analysis. The format is cell-based.
Target sequence in this assay (P40337 whole entry, looked up): as the sequence (P40337 whole entry, looked up) above
Target sequence in this assay (Q8TEK3 whole entry, looked up): as the sequence (Q8TEK3 whole entry, looked up) above
Data set [5] has the same target. Nature of the data set: PROTAC activity at VHL/DOTIL in mixed-lineage leukemia rearranged (MLL-r) human THP-1 cells assessed as induction of DOT1L degradation by measuring reduction in DOTIL protein level at 0.3 uM incubated for 24 hrs by western blot analysis relative to control. The format is cell-based. Details: scale not given: the % may be the effect or the level left.
Target sequence in this assay (P40337 whole entry, looked up): as the sequence (P40337 whole entry, looked up) above
Target sequence in this assay (Q8TEK3 whole entry, looked up): as the sequence (Q8TEK3 whole entry, looked up) above

In data set [6] the target is PRMT5/MEP50 complex (Homo sapiens) (UniProt O14744+Q9BQA1). As to the kind of experiment: Inhibition of human PRMT5/MEP50 complex using histone H2A and SAM as substrate at 10 uM by radiometric Hotspot assay. The data set is classed as protein-complex assay.
Data set [7] deals with T1, von Hippel-Lindau disease tumor suppressor/Histone-lysine N-methyltransferase, H3 lysine-79 specific. As to the kind of experiment: PROTAC activity at VHL/DOT1L in mixed-lineage leukemia rearranged (MLL-r) human MV4-11 cells assessed as induction of DOT1L degradation incubated for 24 hrs by western blot analysis. The format is cell-based.
Data set [8] concerns the target T2, Histone-lysine N-methyltransferase NSD2 (Homo sapiens) (UniProt O96028).
T2 sequence (whole entry): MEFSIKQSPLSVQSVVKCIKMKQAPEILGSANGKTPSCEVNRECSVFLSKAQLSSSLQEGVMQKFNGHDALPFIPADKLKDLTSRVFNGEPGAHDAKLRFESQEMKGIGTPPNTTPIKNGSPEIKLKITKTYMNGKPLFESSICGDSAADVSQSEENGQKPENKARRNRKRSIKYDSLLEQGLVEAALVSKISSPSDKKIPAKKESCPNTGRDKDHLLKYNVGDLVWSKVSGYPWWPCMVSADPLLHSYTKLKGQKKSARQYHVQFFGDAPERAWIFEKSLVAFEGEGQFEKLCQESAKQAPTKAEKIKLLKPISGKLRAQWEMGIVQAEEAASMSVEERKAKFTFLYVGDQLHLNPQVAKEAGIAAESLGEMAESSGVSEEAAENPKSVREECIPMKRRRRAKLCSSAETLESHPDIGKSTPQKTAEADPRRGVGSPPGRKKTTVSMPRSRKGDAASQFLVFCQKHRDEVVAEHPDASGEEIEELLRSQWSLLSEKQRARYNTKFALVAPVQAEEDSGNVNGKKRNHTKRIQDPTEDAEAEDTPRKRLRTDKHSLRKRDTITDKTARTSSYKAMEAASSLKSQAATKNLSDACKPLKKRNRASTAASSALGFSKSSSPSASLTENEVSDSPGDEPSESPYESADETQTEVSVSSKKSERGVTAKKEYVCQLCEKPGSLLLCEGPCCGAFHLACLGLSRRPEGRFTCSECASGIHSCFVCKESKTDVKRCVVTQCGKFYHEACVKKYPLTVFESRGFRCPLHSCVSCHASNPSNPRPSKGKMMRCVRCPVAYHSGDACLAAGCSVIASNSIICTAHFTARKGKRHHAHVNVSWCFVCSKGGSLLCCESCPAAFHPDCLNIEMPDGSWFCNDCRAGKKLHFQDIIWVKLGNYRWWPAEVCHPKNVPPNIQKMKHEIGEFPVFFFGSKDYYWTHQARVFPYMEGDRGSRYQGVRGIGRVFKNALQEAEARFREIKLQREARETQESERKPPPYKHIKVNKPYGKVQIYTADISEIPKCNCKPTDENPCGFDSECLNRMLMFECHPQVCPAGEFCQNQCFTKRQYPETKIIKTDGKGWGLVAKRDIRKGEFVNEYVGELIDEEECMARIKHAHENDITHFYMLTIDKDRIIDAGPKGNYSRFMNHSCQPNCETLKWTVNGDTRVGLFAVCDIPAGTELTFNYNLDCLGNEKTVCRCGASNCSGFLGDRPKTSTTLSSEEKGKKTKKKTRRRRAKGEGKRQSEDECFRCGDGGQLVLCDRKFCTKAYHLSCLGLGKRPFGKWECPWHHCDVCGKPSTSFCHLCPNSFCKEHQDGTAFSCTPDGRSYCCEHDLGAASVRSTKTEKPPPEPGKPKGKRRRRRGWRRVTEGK
Nature of the data set: Inhibition of human NSD2 using nucleosomes and SAM as substrate at 10 uM by radiometric Hotspot assay.

For the compound `Cc1ncsc1-c1ccc([C@H](CC(=O)NCCCCCCNC(=O)COc2nc(N)nc(Nc3cc(S(N)(=O)=O)ccc3N[C@@H](c3cccc4c3OC(F)(F)O4)c3ncccc3Cl)n2)NC(=O)[C@@H]2C[C@@H](O)CN2C(=O)[C@@H](NC(=O)C2(F)CC2)C(C)(C)C)cc1`, the fold change (FC) was determined as 0.03 in data set [1] and 0.29 in data set [3]. Moreover, the Activity result in data set [2] is “Non-toxic”; in data set [5], 70%; in data set [7] it was “Dose-dependent-effect”. Besides, in data set [4], the outcome was inactive. Moreover, the inhibition entry in data set [6] and in data set [8] was “inactive” throughout. In addition, the DC50 in data set [7] worked out at 25 nM.

These data come from ChEMBL document CHEMBL6182889, “Discovery of the first-in-class DOT1L PROTAC degrader” (Eur J Med Chem, 2025).
